Data set [1] concerns SARS-CoV-2 pseudovirus. The experiment in a line: In vivo SARS-CoV-2 pseudovirus infection, lung luminescence (IVIS). The conditions noted are these: vs positive control. Further details: species or system BALB/c mice.
Data set [2] relates to IL-6 level in LPS-induced A549 cells. The experiment in a line: IL-6 level in LPS-induced A549 cells (ELISA). Type of data set: cell-based, human. As to conditions: 0.5 μg/mL LPS, 4.94-400 μM, 48 hours, vs LPS alone, p<0.05. Here is the method:
In this example, A549 cells (human alveolar basal epithelial cells) were used to assess the effect of the present NIM-HA conjugate (CA102N) on the IL-6 level.
A549 cells in 600 μL F-12K medium were seeded in a density of 5×10^4 per 24-well and incubated overnight. The next day, the medium was discarded and replaced with a fresh medium containing 1 μg/mL LPS with 0, 0.1, 0.2, 0.4 and 0.8 mg/mL CA102N (eq. 0, 5.9, 11.8, 23.6 and 47.2 μM) conjugate or 5 μg/mL (12.7 μM) dexamethasone, which was then incubated for 48 hours. Then, 300 μL of supernatants were collected, and the IL-6 level was measured using a Human IL-6 Uncoated ELISA kit (Catalogue No. 88-7066; Invitrogen). Cells not treated with LPS are used as the negative control, whereas cells treated with LPS but not CA102N are used as the positive control. The results were summarized in FIG. 3, and the data were expressed as mean±standard deviation (SD).
A549 cells in 600 μL F-12K medium were seeded in a density of 2×10^4 per 24-well and incubated overnight. […] Then, 300 μL of supernatants were collected, and the IL-6 level was measured using Human IL-6 Uncoated ELISA kit (Catalogue No. 88-7066; Invitrogen). […] The results were summarized in FIG. 4, and the data were expressed as mean±standard deviation (SD).

Data set [3] deals with SARS-CoV-2 pseudotyped lentivirus. It counts as cell-based.
The conditions of data set [4]: prior studies; cited from earlier work.
Data set [5] has as its system IL-6, KC/GRO and MCP-1. Kind of data set: Serum IL-6 and IL-6 downstream chemokines in CT26 tumor-bearing mice. As to conditions: nimesulide alone 1.5 mg/kg and 5.3 mg/kg i.v. It counts as in vivo.
Description: When the tumor volumes reached 25-50 mm^3, tumor-bearing mice were randomized to six groups: vehicle control, 50 mg/kg NIM-HA (eq. 1.3 mg/kg Nim) conjugate, 100 mg/kg (eq. 2.6 mg/kg Nim) NIM-HA conjugate, 200 mg/kg (eq. 5.2 mg/kg Nim) NIM-HA conjugate, 1.5 mg/kg nimesulide, and 5.3 mg/kg nimesulide. The vehicle or test samples were i.v. injected two times weekly for two weeks.
The serum level of IL-6 and two IL-6 downstream chemokines (KC/GRO and MCP-1) were measured following conventional protocols.

For the molecule hyaluronic acid [HA], the “SARS-CoV-2 pseudovirus infection (lung luminescence)” value in data set [1] (HA group (dose not given)) was “no significant difference between the HA group and the positive control”.
On to `CC(=O)NC1C(O)OC(CO)C(O)C1OC1OC(C(=O)Nc2ccc(NS(C)(=O)=O)c(Oc3ccccc3)c2)C(O)C(O)C1O` (stereo not drawn) [NIM-HA disaccharide conjugate], for which, in data set [2], the IL-6 level result is on record as “substantially decrease the IL-6 level in LPS-treated cells in a dose-dependent manner”.
Take `CS(=O)(=O)Nc1ccc([N+](=O)[O-])cc1Oc1ccccc1` [nimesulide, N-(4-nitro-2-phenoxyphenyl)methanesulfonamide]: in data set [3], the “inhibition of SARS-CoV-2 pseudovirus entry (in words)” value is “cannot inhibit SARS-CoV-2 pseudovirus infection by blocking the viral entry”. Also, in data set [4], the hepatotoxicity entry is listed as “significantly associated with hepatotoxicity”. Further, in data set [1] (4 mg/kg nimesulide i.v. 1 hour before intra-tracheal pseudovirus, 24 hours, p<0.05), the “SARS-CoV-2 pseudovirus infection (lung luminescence)” value was “inhibit significantly compared to the positive control”. The IL-6 blockade result in data set [5] is listed as “cannot elicit any effect on IL-6 blockade”.

The record behind these values is patent US11643431B2, “Uses of hyaluronan conjugate” (priority 2020, dated 2023).
